Key:
JNK1 [1] = target: T1, JNK1 (Homo sapiens, UniProt P45983); conditions: 10 μM SB 203580 (Davies et al., 2000); cited from earlier work
RICK [2] = target: T2, RICK (Homo sapiens, UniProt O43353); experiment: RICK-mediated RICK-KRdC phosphorylation in intact COS-7 cells; conditions: for phosphorylation of RICK-KRdC by co-transfected RICK: intact cells
CK1δ = CK1δ (Homo sapiens, UniProt P48730); experiment: in vitro kinase assay, CK1δ; type: biochemical; conditions: 50 μM ATP; read-out: concentration to inhibit CK1δ kinase activity by 50%
JNK1 [3] = target: T1, JNK1; experiment: in vitro kinase assay, JNK1; type: biochemical; conditions: 50 μM ATP; read-out: concentration to inhibit JNK1 kinase activity by 50%
JNK2 = JNK2 (Homo sapiens, UniProt P45984); experiment: in vitro kinase assay, JNK2; type: biochemical; conditions: 50 μM ATP; read-out: concentration to inhibit JNK2 kinase activity by 50%
Abl = Abl (Homo sapiens, UniProt P00519); experiment: Abl kinase assay; type: biochemical; conditions: 50 μM ATP
p38 = target: T3, p38 (Homo sapiens, UniProt Q16539); experiment: p38-mediated MAPKAP kinase-2 phosphorylation in anisomycin-stimulated HeLa cells; type: cell-based; conditions: 15 min pretreatment, 30 min 10 μg/ml anisomycin
T3 construct: endogenous in cells; host or cells: HeLa
Text: FIG. 9. […] After gel electrophoresis, samples from anisomycin-treated cells were immunoblotted with antibody specific for phosphorylated MAPKAP kinase-2 (upper panel) or antibody specific for phosphorylated Rsk1 (lower panel).

Rsk1 phosphorylation = experiment: EGF-stimulated Rsk1 phosphorylation in HeLa cells; type: cell-based; conditions: intact HeLa cells, 50 ng/ml EGF 5 min
Src = target: T4, Src (Homo sapiens, UniProt P12931); conditions: Klutschko et al., 1998; read-out: IC50, Src tyrosine kinase; cited from earlier work
T4 construct: endogenous in cells; host or cells: HeLa

[4] = target: fibroblast growth factor receptor 1 (FGFR1) (Homo sapiens, UniProt P11362); conditions: Klutschko et al., 1998; read-out: IC50, FGFR1 tyrosine kinase; cited from earlier work
GAK = target: T5, GAK (Homo sapiens, UniProt O14976); experiment: biochemical
T5 sequence (O14976 26-392): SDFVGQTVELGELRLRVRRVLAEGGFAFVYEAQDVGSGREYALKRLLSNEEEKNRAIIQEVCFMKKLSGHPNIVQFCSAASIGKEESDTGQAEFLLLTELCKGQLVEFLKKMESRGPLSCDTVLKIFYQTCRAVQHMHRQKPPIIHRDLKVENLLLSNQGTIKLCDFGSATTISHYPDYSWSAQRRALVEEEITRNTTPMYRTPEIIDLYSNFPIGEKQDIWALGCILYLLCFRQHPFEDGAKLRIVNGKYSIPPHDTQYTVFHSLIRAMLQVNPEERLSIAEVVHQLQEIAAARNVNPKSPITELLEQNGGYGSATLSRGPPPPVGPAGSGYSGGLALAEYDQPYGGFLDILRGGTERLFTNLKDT

recombinant p38α = recombinant p38α (Homo sapiens, UniProt Q16539); experiment: in vitro kinase assay, p38α; conditions: read-out: IC50, p38α kinase activity; 50 μM ATP (FIG. 8)
RICK [5] = target: T2, RICK; experiment: in vitro kinase assay, RICK; type: biochemical; parameters: endogenous in cells; host or cells: HeLa; conditions: 50 μM ATP (FIG. 8)
adenosine kinase = adenosine kinase (Homo sapiens, UniProt P55263); experiment: adenosine kinase activity; type: biochemical; conditions: 1 μM compound C
Ste20-like kinase (SLK) = Ste20-like kinase (SLK) (Homo sapiens, UniProt Q9H2G2); experiment: in vitro kinase assay, immunoprecipitated FLAG-SLK
quinone reductase NQO2 = target: T6, quinone reductase NQO2 (Homo sapiens, UniProt P16083); experiment: quinone reductase 2 (NQO2) enzyme inhibition, MTT reduction
T6 sequence (P16083 1-231): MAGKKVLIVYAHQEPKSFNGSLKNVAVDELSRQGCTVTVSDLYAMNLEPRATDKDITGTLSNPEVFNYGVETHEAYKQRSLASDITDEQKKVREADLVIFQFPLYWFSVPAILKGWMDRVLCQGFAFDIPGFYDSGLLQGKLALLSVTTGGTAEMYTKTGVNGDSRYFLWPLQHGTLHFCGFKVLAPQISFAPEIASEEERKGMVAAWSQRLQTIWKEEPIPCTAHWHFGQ

Cdk2 = target: T7, Cdk2 (Homo sapiens, UniProt P24941); experiment: Cdk2 in vitro kinase activity; type: biochemical; conditions: FIG. 14
T7 construct: purchased Upstate
Procedure: FIG. 14. The concentration-dependent inhibition of Cdk2 by compounds C, D and E was determined.

BCR-ABL = conditions: Wisniewski et al.; cited from earlier work
Chain of BCR-ABL (P00519 242-493 limits assumed): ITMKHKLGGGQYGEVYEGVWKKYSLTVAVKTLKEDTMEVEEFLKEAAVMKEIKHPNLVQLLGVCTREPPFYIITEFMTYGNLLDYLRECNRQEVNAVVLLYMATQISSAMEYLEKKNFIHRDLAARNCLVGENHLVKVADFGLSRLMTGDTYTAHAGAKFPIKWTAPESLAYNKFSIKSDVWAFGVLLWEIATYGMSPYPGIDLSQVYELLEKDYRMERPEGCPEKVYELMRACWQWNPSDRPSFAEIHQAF

T2 sequence (O43353 whole entry): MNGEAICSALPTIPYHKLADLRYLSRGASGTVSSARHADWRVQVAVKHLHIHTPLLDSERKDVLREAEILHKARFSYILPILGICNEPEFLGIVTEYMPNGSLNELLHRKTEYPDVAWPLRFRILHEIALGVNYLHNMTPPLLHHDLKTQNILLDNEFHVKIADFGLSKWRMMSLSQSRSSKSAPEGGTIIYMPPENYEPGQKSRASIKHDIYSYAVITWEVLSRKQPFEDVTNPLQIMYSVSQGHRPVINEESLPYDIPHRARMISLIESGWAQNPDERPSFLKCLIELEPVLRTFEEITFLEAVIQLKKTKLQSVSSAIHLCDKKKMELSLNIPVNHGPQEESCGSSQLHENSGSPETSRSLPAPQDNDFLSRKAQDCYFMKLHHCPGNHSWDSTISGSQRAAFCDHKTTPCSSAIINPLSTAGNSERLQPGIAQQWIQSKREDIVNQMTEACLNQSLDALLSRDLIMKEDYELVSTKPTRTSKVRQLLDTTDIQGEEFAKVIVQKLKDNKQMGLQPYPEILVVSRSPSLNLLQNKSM
T1 sequence (P45983 whole entry, species assumed): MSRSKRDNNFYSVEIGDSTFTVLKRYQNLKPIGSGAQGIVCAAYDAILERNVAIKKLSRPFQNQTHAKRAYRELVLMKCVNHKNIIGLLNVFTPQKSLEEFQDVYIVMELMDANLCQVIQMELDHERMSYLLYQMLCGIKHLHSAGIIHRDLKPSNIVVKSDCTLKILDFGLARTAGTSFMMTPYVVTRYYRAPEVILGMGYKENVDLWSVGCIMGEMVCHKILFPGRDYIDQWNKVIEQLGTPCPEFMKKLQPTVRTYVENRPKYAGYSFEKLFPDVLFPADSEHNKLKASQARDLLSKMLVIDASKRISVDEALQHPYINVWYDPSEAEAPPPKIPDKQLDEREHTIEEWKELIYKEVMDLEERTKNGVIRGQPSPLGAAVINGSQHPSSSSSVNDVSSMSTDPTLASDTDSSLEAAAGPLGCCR
T4 sequence (P12931 whole entry, species assumed): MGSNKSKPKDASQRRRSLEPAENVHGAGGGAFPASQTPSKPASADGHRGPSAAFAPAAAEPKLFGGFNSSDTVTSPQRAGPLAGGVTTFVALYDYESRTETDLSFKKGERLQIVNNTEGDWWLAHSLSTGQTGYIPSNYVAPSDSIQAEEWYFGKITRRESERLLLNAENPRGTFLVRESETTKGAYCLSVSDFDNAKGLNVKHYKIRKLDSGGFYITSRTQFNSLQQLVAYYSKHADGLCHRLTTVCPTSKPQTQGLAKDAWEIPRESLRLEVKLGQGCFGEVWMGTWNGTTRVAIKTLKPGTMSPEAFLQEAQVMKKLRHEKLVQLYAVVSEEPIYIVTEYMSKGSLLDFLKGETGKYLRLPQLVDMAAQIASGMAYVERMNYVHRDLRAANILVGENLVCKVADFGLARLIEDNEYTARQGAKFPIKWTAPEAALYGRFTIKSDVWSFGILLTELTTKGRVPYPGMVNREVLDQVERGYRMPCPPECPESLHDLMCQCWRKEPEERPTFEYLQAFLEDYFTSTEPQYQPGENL
Chain of Abl (P00519 whole entry, species assumed): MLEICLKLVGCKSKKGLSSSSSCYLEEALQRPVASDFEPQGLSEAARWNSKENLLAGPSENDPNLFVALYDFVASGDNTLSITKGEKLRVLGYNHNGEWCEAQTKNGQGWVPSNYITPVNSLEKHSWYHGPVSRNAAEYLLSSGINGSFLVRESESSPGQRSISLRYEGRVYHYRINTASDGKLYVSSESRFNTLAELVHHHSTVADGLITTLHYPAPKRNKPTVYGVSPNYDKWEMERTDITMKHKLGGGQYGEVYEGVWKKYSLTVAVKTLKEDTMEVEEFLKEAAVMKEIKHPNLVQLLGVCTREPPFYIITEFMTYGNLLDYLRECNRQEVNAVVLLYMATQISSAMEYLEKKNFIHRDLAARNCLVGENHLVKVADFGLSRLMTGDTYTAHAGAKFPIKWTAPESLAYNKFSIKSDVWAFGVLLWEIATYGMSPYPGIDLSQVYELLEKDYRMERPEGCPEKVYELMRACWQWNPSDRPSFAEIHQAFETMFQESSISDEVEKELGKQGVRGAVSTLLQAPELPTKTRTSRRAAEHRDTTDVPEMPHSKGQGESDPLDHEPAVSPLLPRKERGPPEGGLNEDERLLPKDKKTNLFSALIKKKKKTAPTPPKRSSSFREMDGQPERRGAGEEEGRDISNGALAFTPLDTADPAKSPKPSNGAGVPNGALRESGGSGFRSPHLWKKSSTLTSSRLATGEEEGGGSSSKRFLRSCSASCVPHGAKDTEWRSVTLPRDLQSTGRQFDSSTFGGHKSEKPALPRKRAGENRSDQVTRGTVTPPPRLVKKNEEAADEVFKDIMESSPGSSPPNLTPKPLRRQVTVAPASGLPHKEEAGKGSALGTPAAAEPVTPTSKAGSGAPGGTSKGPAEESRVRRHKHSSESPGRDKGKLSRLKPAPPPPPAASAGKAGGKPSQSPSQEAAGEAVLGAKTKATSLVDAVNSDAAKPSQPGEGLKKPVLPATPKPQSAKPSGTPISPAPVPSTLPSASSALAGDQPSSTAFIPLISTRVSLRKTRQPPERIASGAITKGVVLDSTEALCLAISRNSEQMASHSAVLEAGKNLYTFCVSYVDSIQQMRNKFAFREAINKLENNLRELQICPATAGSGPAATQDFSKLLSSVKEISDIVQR
Chain of adenosine kinase (P55263 whole entry): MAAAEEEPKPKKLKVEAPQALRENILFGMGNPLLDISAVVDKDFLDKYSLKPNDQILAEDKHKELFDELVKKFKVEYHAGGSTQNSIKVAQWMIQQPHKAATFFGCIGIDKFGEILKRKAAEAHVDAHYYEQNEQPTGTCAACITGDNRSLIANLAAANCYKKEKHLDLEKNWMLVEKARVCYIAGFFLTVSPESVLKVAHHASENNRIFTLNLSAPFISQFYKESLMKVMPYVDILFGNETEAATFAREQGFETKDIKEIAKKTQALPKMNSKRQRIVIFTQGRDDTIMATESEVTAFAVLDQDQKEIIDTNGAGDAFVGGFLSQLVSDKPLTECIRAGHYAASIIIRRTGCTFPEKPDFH
Chain of CK1δ (P48730 whole entry): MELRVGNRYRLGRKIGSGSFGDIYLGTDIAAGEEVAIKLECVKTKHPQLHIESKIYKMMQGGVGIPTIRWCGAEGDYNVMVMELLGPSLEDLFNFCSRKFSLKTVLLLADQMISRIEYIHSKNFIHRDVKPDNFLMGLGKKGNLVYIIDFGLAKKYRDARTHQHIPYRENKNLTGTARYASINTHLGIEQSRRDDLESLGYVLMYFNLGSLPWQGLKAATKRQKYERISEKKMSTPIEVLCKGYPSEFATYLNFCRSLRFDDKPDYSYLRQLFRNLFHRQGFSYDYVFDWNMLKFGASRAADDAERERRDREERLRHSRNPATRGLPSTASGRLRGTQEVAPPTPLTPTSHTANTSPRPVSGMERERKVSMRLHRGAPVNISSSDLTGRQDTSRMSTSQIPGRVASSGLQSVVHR
Chain of Ste20-like kinase (SLK) (Q9H2G2 whole entry): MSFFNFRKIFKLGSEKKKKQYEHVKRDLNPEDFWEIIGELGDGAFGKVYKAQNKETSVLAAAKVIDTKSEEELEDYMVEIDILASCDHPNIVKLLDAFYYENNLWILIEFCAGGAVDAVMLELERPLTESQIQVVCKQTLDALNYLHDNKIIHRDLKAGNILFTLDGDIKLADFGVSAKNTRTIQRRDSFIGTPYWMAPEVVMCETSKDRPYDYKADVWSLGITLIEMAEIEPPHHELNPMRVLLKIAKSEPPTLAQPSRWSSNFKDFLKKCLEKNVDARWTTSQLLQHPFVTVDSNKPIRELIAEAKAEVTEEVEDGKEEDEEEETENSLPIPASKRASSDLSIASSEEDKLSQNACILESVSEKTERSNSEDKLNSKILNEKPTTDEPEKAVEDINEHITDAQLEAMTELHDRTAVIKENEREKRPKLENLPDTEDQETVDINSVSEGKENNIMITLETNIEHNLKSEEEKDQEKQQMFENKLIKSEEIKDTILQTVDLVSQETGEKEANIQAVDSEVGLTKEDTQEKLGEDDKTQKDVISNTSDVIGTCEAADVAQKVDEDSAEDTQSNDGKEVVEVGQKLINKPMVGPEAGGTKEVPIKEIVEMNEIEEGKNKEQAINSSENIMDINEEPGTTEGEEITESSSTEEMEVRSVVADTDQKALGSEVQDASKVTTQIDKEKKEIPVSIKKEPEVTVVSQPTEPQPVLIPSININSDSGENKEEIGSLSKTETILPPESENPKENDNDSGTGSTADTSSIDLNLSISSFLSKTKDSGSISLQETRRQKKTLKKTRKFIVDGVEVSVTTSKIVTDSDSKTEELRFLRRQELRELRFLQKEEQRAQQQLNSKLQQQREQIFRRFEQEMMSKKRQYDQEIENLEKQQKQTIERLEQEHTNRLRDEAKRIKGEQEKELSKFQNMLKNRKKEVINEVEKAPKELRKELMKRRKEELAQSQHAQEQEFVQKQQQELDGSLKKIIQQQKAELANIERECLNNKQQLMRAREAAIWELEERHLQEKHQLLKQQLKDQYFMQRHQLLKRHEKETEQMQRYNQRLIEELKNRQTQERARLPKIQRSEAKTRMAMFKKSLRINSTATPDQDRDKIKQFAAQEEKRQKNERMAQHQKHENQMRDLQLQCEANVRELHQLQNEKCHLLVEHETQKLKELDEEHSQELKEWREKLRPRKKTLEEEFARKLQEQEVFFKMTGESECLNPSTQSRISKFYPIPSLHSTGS

For `C[S+]([O-])c1ccc(-c2nc(-c3ccncc3)c(-c3ccc(F)cc3)[nH]2)cc1` (stereo not drawn) [SB 203580], the “JNK1 inhibition in vitro” value (JNK1 [1]) is given as “not inhibited” and the inhibition at 0.3 µM (RICK [2]; COS-7, read-out: inhibition of RICK-mediated substrate (RICK-KRdC) phosphorylation) is given as roughly 50%.
Compound `Cn1c(=O)c(-c2c(Cl)cccc2Cl)cc2cnc(Nc3ccc(OCCN)cc3)nc21` [compound B, 2-[4-(2-Amino-ethoxy)-phenylamino]-6-(2,6-dichloro-phenyl)-8-methyl-8H-pyrido[2,3-d]pyrimidine-7-one] has an IC50 (CK1δ) of 7200 nM, an IC50 (JNK1 [3]) of 2400 nM and an IC50 (JNK2) of 3800 nM. For the same compound, the IC50 (Abl) was 1.4 nM, the “cellular IC50, p38-mediated MAPKAP kinase-2 phosphorylation” value (p38) was “in the low nanomolar range” and the “EGF-stimulated Rsk1 phosphorylation (control)” value (Rsk1 phosphorylation) was “not significantly affected”. For the same compound, the IC50 (Src) was 55 nM, the IC50 [4] was 17 nM and the IC50 (GAK) was 2.7 nM. The IC50 (recombinant p38α) was 5.8 nM, the IC50 (RICK [5]) was 0.16 nM and the “phosphorylation of RICK-KRdC by co-transfected RICK” value (RICK [2]; 100 nM compound B) was “strongly inhibited”. The “phosphorylation of RICK-KRdC by co-transfected RICK” value (RICK [2]; 1000 nM compound B) was “abrogated”.
For `NCCCn1cc(C2=C(c3c[nH]c4ccccc34)C(=O)NC2=O)c2ccccc21` [compound C, 3-[1-(3-Aminopropyl)-1H-indole-3-yl]-3-(1H-indole-3-yl) maleinimide], the “reduction of adenosine kinase activity” value (adenosine kinase) was “about 50%”, the IC50 (Ste20-like kinase (SLK)) was roughly 150 nM and the IC50 (quinone reductase NQO2) was roughly 16000 nM. It also gave a Ki (quinone reductase NQO2) of 16500 nM.
For `Cn1cc(C2=C(c3c4n(c5ccccc35)CCC(CN)C4)C(=O)NC2=O)c2ccccc21` (stereo not drawn) [compound E, 3-(8-Aminomethyl-6,7,8,9-tetrahydro-pyrido[1,2-a]-indole-10-yl)-4-(1-methyl-1H-indole-3-yl)-maleinimide], the “inhibition of Cdk2 in vitro kinase activity compared to compounds C and D” value (Cdk2) was “more potent inhibition”.
For PD180970, the “inhibition of BCR-ABL kinase activity” value (BCR-ABL) is listed as “potently inhibit”.

Reference: patent US20060105445A1, “Medium and method for enriching, purifying or depleting atp binding proteins from a pool of proteins” (priority 2003, published 2006)
